Data on 6 compounds can be found in US20250163104A1, “MACROCYCLIC IMMUNOMODULATORS” (priority 2021, published 2025).

In this test the target is T1, human PD-1 / PD-L1-Ig binding on Jurkat cell line over-expressing human PD-1 (Jurkat-PD-1) (Homo sapiens, UniProt Q15116).
T1 construct: expressed in transfected cells; host or cells: Jurkat
The experiment in a line: Jurkat-PD-1 Cell Binding High-Content Screening Assay (CBA). The test is classed as cell-based. Conditions: PE-labeled PD-L1-Ig 20 nM final. A digest of the protocol:
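PE-PD-L1-Ig 20 nM final; cells in DMEM/10% FCS; cpd pre-incubation 2 h, 37° C; ligand 1 h; PFA fix + Hoechst 33342; high-content imaging read-out.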

Where [1] appears, read: Jurkat-PD-1 cells, read-out: Jurkat HPD1_PDL1 IC50.

Like-named read-outs stand apart in the source and are kept apart here. Where a SMILES comes first, the peptide text is derived from it. Bridges are numbered along the chain shown (N, C = ends). [ ]: non-standard residue; d: D form. The star is where a group is joined. Phe(4-COOH) = N[C@@H](Cc1ccc(C(=O)O)cc1)C(=O)O; Bip = N[C@@H](Cc1ccc(-c2ccccc2)cc1)C(=O)O; Phe(3-Me) = Cc1cccc(C[C@H](N)C(=O)O)c1; 4Pal = N[C@@H](Cc1ccncc1)C(=O)O; Cha = N[C@@H](CC1CCCCC1)C(=O)O; Carboxymethyl = O=C(O)C*; Orn = NCCC[C@H](N)C(=O)O; Dab = NCC[C@H](N)C(=O)O; Dap = NC[C@H](N)C(=O)O

T1 sequence (Q15116 25-288): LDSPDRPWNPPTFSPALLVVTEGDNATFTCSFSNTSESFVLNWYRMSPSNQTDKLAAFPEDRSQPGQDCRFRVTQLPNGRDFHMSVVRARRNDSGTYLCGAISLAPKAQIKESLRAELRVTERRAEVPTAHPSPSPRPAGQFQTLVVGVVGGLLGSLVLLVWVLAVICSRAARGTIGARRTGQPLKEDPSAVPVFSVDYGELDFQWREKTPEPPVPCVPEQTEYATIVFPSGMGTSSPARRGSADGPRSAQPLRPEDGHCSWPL

As to `Cc1cccc(C[C@@H]2NC(=O)[C@H](CC(=O)O)NC(=O)[C@H](Cc3ccc(C(=O)O)cc3)NC(=O)[C@H](Cc3ccc(OCC(=O)O)cc3)NC(=O)CSC[C@@H](C(N)=O)NC(=O)[C@H]([C@@H](C)O)NC(=O)[C@H](C(C)C)NC(=O)[C@H](CC(C)C)NC(=O)[C@H](CCN)NC(=O)[C@@H](CC(C)C)NC(=O)[C@H](CCCN)NC(=O)[C@H](C(C)C)NC(=O)[C@H](Cc3ccc(-c4ccccc4)cc3)NC(=O)[C@H](C(C)C)NC2=O)c1` [Compound 1551] ({CH2CO}-Y(Carboxymethyl)[Phe(4-COOH)]D[Phe(3-Me)]V[Bip]V[Orn][dL][Dab]LVTC-NH2; thioether N-14), the IC50 (usually the concentration that inhibits the measured activity by half) under setting [1] came to 15.6 nM.

Turning to `CC[C@H](C)[C@@H]1NC(=O)[C@H](Cc2ccc(-c3ccccc3)cc2)NC(=O)[C@H](C(C)C)NC(=O)[C@H](Cc2c[nH]c3ccccc23)NC(=O)[C@H](CC(=O)O)NC(=O)[C@H](Cc2ccncc2)NC(=O)[C@H](CN)NC(=O)CSC[C@@H](C(=O)N[C@@H](C)C(N)=O)NC(=O)[C@H]([C@@H](C)O)NC(=O)[C@H](C(C)C)NC(=O)[C@H](CC(C)C)NC(=O)[C@H](CCN)NC(=O)[C@@H](CC(C)C)NC(=O)[C@H](CCCN)NC1=O` [Compound 1238] ({CH2CO}-[Dap][4Pal]DWV[Bip]I[Orn][dL][Dab]LVTCA-NH2; thioether N-14), under setting [1], the IC50 stood at 15 nM.

For the compound `CC(C)C[C@H]1NC(=O)[C@H](CCCN)NC(=O)[C@H](CCC(=O)O)NC(=O)[C@H](Cc2ccc(-c3ccccc3)cc2)NC(=O)[C@H](C(C)C)NC(=O)[C@H](Cc2c[nH]c3ccccc23)NC(=O)[C@H](CC(=O)O)NC(=O)[C@H](Cc2ccc(N)cc2)NC(=O)[C@H](CN)NC(=O)CSC[C@@H](C(=O)N[C@@H](C)C(N)=O)NC(=O)[C@H]([C@@H](C)O)NC(=O)[C@H](C(C)C)NC(=O)[C@H](CC2CCCCC2)NC(=O)[C@H](CCN)NC1=O` [Compound 2182], the half-inhibitory concentration (IC50) under setting [1] came out at 16 nM.

`Cc1cccc(C[C@@H]2NC(=O)[C@H](CC(=O)O)NC(=O)[C@H](Cc3ccncc3)NC(=O)[C@H](Cc3ccc(OCC(=O)O)cc3)NC(=O)CSC[C@@H](C(=O)NCC(N)=O)NC(=O)[C@H](CO)NC(=O)[C@H](C(C)C)NC(=O)[C@H](CC3CCCCC3)NC(=O)[C@H](Cc3c[nH]cn3)NC(=O)[C@@H](CC(C)C)NC(=O)[C@H](CCCN)NC(=O)[C@H](C(C)C)NC(=O)[C@H](Cc3ccc(-c4ccccc4)cc3)NC(=O)[C@H](CC(C)C)NC2=O)c1` [Compound 1585] ({CH2CO}-Y(Carboxymethyl)[4Pal]D[Phe(3-Me)]L[Bip]V[Orn][dL]H[Cha]VSCG-NH2; thioether N-14) returned an IC50 (Jurkat HPD1_PDL1 IC50, Jurkat-PD-1 cells) of 50.4 nM.

`Cc1cccc(C[C@@H]2NC(=O)[C@H](CC(=O)O)NC(=O)[C@H](Cc3ccc(C(=O)O)cc3)NC(=O)[C@H](Cc3ccncc3)NC(=O)CSC[C@@H](C(=O)N[C@H](CC(N)=O)C(N)=O)NC(=O)[C@H](CCC(=O)O)NC(=O)[C@H](C(C)C)NC(=O)[C@H](CC3CCCCC3)NC(=O)[C@H](CCN)NC(=O)[C@@H](CC(C)C)NC(=O)[C@H](CCCN)NC(=O)[C@H](Cc3ccc(OCC(=O)O)cc3)NC(=O)[C@H](Cc3ccc(-c4ccccc4)cc3)NC(=O)[C@H](Cc3ccc(OCC(=O)O)cc3)NC2=O)c1` [Compound 2314] ({CH2CO}-[4Pal][Phe(4-COOH)]D[Phe(3-Me)]Y(Carboxymethyl)[Bip]Y(Carboxymethyl)[Orn][dL][Dab][Cha]VEC[dN]-NH2; thioether N-14): the IC50 under setting [1] is 45.8 nM.

As to `CC(C)C[C@H]1NC(=O)[C@H](CCCN)NC(=O)[C@H](CCC(=O)O)NC(=O)[C@H](Cc2ccc(-c3ccccc3)cc2)NC(=O)[C@H](C(C)C)NC(=O)[C@H](Cc2c[nH]c3ccccc23)NC(=O)[C@H](CC(=O)O)NC(=O)[C@H](Cc2ccc(C(=O)O)cc2)NC(=O)[C@H](Cc2ccc(OCC(=O)O)cc2)NC(=O)CSC[C@@H](C(=O)N[C@@H](C)C(N)=O)NC(=O)[C@H]([C@@H](C)O)NC(=O)[C@H](C(C)C)NC(=O)[C@H](CC2CCCCC2)NC(=O)[C@H](CCN)NC1=O` [Compound 1427], the IC50 under setting [1] was 9.7 nM.
